According to patent publication US20220395500A1, “SMALL MOLECULE ACTIVATORS OF INTERFERON REGULATORY FACTOR 3 AND METHODS OF USE THEREOF” (Neuralexo, Inc., priority 2020, published 2022):
Where two headings read alike, the source gives them in different places.

How the values were obtained:
Format in all cases: cell-based, mouse
[1] = system: NF-κB-SEAP reporter in J774-Dual cells; experiment: J774-Dual NF-κB-SEAP reporter assay; conditions: read-out: J774 NFkB EC50
Method: First, optimal assay conditions and assay quality in 384-well format were determined. As mentioned, the mouse macrophage J774 cell line (J774-Dual, InvivoGen) stably transfected with the same inducible reporters described above (e.g., IRF-Lucia luciferase and NF-κB-SEAP) was used. The responsiveness of the J774-Dual cell line was investigated in an array of assay conditions to obtain sensitive and reproducible results for the activation of the IRF and NF-κB reporters. An optimal plating density and conditions for these cells was established for these cells in a 384-well format. Assay work-flow is similar to that discussed above for the THP1-Dual assay without a need for cell differentiation. Thus, cells are seeded directly in growth medium and incubated at 37° C. in a 5% C02 incubator for 24 hours prior to the programmed treatments being added as described herein.
The primary high throughput screen used the HTS platform of human THP1 monocyte cells containing the IRF-Lucia luciferase and NFκB-SEAP (secreted embryonic alkaline phosphatase) dual reporter (THP1-Dual, Invivogen), enabling the simultaneous study of the IRF and NFκB signaling pathways respectively. As discussed, the Lucia luciferase reporter gene is under the control of an ISG54 (interferon-stimulated gene) minimal promoter in conjunction with five interferon-stimulated response elements (ISRE). The SEAP gene is driven by an IFNβ minimal promoter fused to five copies of the NFκB consensus transcriptional response element and three copies of the c-Rel binding site. Both IRF-Lucia luciferase and NFκB-SEAP reporter proteins are secreted and readily measurable in the cell culture supernatant when using QUANTI-Luc™ and QUANTI-Blue™ detection reagents, respectively. Identified “hits” were confirmed in a secondary screen with an 8-point dose response curve. Hits were further screened for activity in the mouse using the mouse J774 macrophage-like cell line containing the identical reporter constructs (J774-Dual, Invivogen).
The OTRADI Small Molecule Library of approximately 246,000 diverse compounds (see below for description) was screened using the THP1-Dual based HTS platform described above. All transfer steps in the screen are fully automated, thus reducing variability. Primary screening included a single data point or dose for each molecule. After data normalization was applied for each assay run, “hit” selection was performed on the plates that pass the quality control (QC) criterion. Hits were defined as samples having values above the activity cutoff determined based on noise level of the assay to reduce false positive rates. In the pilot study discussed above this activity value was >3σ above the ISRE mean with the added criteria of NFκB activation being lower than […] from the mean to identify IRF selective compounds. The ratio of ISRE:NFκB activity was also calculated as a selectivity index for prioritizing hit selection. Primary hits underwent secondary screening to determine the 50% effective concentration (EC50) and 50% cytotoxic concentration (CC50) of these agents using an 8-point dose-response curve in the human THP1-Dual cells. Cytotoxicity was measured in the plate using Cell Titer Glo (Promega). Identified candidate compounds were further screened (orthogonal screen) for cross species activity in the validated mouse J774-Dual assay using an 8-point dose-response format to determine EC50 and CC50 values as well as ISRE:NFκB ratios. A general process flow for the experimental design laid out above is depicted at FIG. 12.

[2] = system: IRF-Lucia luciferase reporter (ISRE) in J774-Dual cells; experiment: J774-Dual IRF-Lucia luciferase reporter assay (ISRE activation)
Outline: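 Mouse J774-Dual macrophages, seeded in growth medium 24 h at 37 °C, 5% CO2 before treatment; secreted IRF-Lucia (ISRE-driven) and NF-κB-SEAP read with QUANTI-Luc and QUANTI-Blue. EC50 and CC50 from 8-point dose-response, cytotoxicity by CellTiter-Glo; ISRE:NF-κB ratio calculated.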

J774-Dual cytotoxicity = conditions: mouse, J774-Dual cells, read-out: J774 cytotox CC50
Outline: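 Orthogonal cross-species screen in mouse J774-Dual cells using 8-point dose-response format. Cytotoxicity measured in-plate by CellTiter-Glo luminescence, giving CC50 alongside EC50 and ISRE:NFκB ratios.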

[3] = Mouse Reporter Cell Line J774, at peak
[4] = Mus musculus, J774, Mouse Reporter Cell Line, 8-point dose response
[5] = Mus musculus, J774, Mouse Reporter Cell Line, 8-point dose response, read-out: J774 IRF EC50
[6] = Mus musculus, J774, Mouse Reporter Cell Line J774
[7] = Mus musculus, J774, Mouse Reporter Cell Line J774, read-out: J774 IRF EC50

SMILES	EC50 [2, 5] [µM]	EC50 [2, 7] [µM]	J774 IRF % activation at peak [2, 3] [%]	CC50 (J774-Dual cytotoxicity; Mouse Reporter Cell Line) [µM]	J774 IRF % activation at peak ([2]; Mouse Reporter Cell Line) [%]	CC50 (J774-Dual cytotoxicity; Mouse Reporter Cell Line J774) [µM]	also measured
COc1ccc(C(=O)Nc2cc(-c3nc4ccccc4s3)ccc2C)cc1[N+](=O)[O-] [ND-38]			114				EC50 ([1]; Mouse Reporter Cell Line J774): 12 µM; EC50 ([2]; Mouse Reporter Cell Line J774, read-out: J774 IRF EC50): 7.67 µM
Cc1c(Br)ccc(C(=O)Nc2ccc(N3CCN(C(=O)c4cccs4)CC3)cc2)c1C [NA-16]				> 25			EC50 [1, 4]: 12.9 µM
O=C(Nc1ccc(N2CCN(C(=O)c3ccsc3)CC2)cc1)c1ccc(OCc2ccccc2)nc1 [NA-1]	~3.06			13.7	67.54		EC50 [1, 4]: ~3.19 µM
O=C(Nc1ccc(N2CCN(C(=O)c3cccs3)CC2)cc1)c1ccc(OCc2ccccc2)nc1 [NA-59]	3.09			36.1	150.5		EC50 [1, 4]: 4.37 µM
O=C(Nc1ccc(N2CCN(C(=O)c3cccs3)CC2)cc1)c1sc2cc(Cl)ccc2c1Cl [NA-20]	4.19			43.6	29.98		EC50 [1, 4]: ~4.75 µM
Cc1cc(NC(=O)c2sc3cc(Cl)ccc3c2Cl)ccc1NC(=O)c1ccco1 [NC-2]	14.6			> 25	4.6		
O=C(Nc1ccc(N2CCN(C(=O)c3cccs3)CC2)cc1)c1ccc(-c2ccncc2)cc1 [NA-38]	~10.2			> 25	2.98		
Cc1ccc(NC(=O)c2cc(NC(=O)c3cccs3)ccc2N2CCOCC2)cc1Br [NB-23]		6.56	72.79			36.9	EC50 [1, 6]: 9.53 µM
O=C(Cc1ccc(Cl)cc1)Nc1cccc(-c2nnc(-c3ccco3)o2)c1 [ND-7]						> 25	EC50 [1, 6]: 30.6 µM
O=C(Nc1ccc(N2CCN(C(=O)c3cccs3)CC2)cc1)c1ccc(OCc2ccc(F)c(F)c2F)cc1 [NA-23]				22.1			EC50 [1, 4]: ~2.53 µM
Cc1ccc(NC(=O)c2cc(NC(=O)c3cccs3)ccc2N2CCOCC2)cc1Cl [NB-8]		5.67	52.86			> 25	
COc1ccc(C(=O)Nc2cccc(-c3nc4ncccc4o3)c2)cc1Br [ND-47]						> 25	EC50 [1, 6]: 9.71 µM
Cc1ccc(-c2nc3ccccc3s2)cc1NC(=O)c1cccc(Cl)c1 [ND-80]		~10.1	26.88			> 25	
COc1ccc(C(=O)Nc2cc(-c3nc4ccccc4s3)ccc2C)cc1[N+](=O)[O-] [ND52, N-[5-(1,3-benzothiazol-2-yl)-2-methylphenyl]-4-methoxy-3-nitrobenzamide]		5.87	131.7				EC50 [1, 6]: 7.53 µM
Cc1ccc2c(=O)c3cccc(CC(=O)O)c3oc2c1C [DMXAA, 5,6-dimethylxanthenone-4-acetic acid]							EC50 ([2]; Mus musculus, J774-Dual control compound, read-out: EC50 ISRE activation): 24 µM
O=C(Nc1ccc(N2CCN(C(=O)c3cccs3)CC2)cc1)c1ccc(Br)cc1 [NA-14]	5.23			> 25	4.471		
CCOc1cccc(COc2ccc(C(=O)Nc3ccc(N4CCN(C(=O)c5cccs5)CC4)cc3)cc2)c1 [NA42, 4-((3-ethoxybenzyl)oxy)-N-(4-(4-(thiophene-2-carbonyl)piperazin-1-yl)phenyl)benzamide]	3.9			37.2	191.2		EC50 [1, 4]: 5.36 µM
COc1ccc(C(=O)Nc2cc(-c3nc4cc(C)c(C)cc4o3)ccc2C)cc1[N+](=O)[O-] [ND13, N-(5-(5,6-dimethylbenzo[d]oxazol-2-yl)-2-methylphenyl)-4-methoxy-3-nitrobenzamide]		0.956	220.5			4.32	EC50 [1, 6]: 1.32 µM
O=C(Nc1ccc(N2CCN(C(=O)c3cccs3)CC2)cc1)c1ccc(-c2ccccc2)nc1 [NA-41]	10.6			> 25	37.71		

More lines, main results first:

EC50 [2, 5] [µM]	EC50 [2, 7] [µM]	SMILES	J774 IRF % activation at peak [2, 3] [%]	CC50 (J774-Dual cytotoxicity; Mouse Reporter Cell Line) [µM]	J774 IRF % activation at peak ([2]; Mouse Reporter Cell Line) [%]	CC50 (J774-Dual cytotoxicity; Mouse Reporter Cell Line J774) [µM]	also measured
11.9		O=C(Nc1ccc(N2CCN(C(=O)c3cccs3)CC2)cc1)c1ccc(-c2cc3ccccc3oc2=O)cc1 [NA-32]		67.2	77.58		
~3.33		CCOc1ccc(C(=O)Nc2ccc(N3CCN(C(=O)c4cccs4)CC3)cc2)cc1Br [NA-30]		40.7	2.95		
7.38		COc1ccc(C(=O)Nc2ccc(OCc3ccccc3)cc2)cc1[N+](=O)[O-] [NA-44]		> 25	2.085		EC50 [1, 4]: 7.65 µM
	3.58	COc1ccc(-c2nc3cc(C(C)C)ccc3o2)cc1NC(=O)c1ccc(C)c([N+](=O)[O-])c1 [ND-16]	83.02			> 25	EC50 [1, 6]: 6.75 µM
	4.1	COCOc1ccc2oc(-c3ccc(C)c(NC(=O)c4ccc(OC)c([N+](=O)[O-])c4)c3)nc2c1 [ND-95, 4-methoxy-N-(5-(5-(methoxymethoxy)benzo[d]oxazol-2-yl)-2-methylphenyl)-3-nitrobenzamide]	98.11			> 25	EC50 [1, 6]: 3.01 µM
4.67		COc1cccc(COc2ccc(C(=O)Nc3ccc(N4CCN(C(=O)c5cccs5)CC4)cc3)cc2)c1 [NA-24, 4-((3-methoxybenzyl)oxy)-N-(4-(4-(thiophene-2-carbonyl)piperazin-1-yl)phenyl)benzamide]		36.2	111.2		
	8.68	Cc1ccc(NC(=O)c2cc(NC(=O)c3cccs3)ccc2N2CCOCC2)cc1 [NB-17]	16.67			> 25	EC50 [1, 6]: 8.79 µM
4.38		Cc1ccc(COc2ccc(C(=O)Nc3ccc(N4CCN(C(=O)c5cccs5)CC4)cc3)cc2)cc1 [NA-25]		> 25	18.01		EC50 [1, 4]: 8.15 µM
	18.9	COCOc1ccc2oc(-c3ccc(C)c([N+](=O)[O-])c3)nc2c1 [ND-96]	5.389			> 25	
2.64		O=C(Nc1ccc(N2CCN(C(=O)c3cccs3)CC2)cc1)c1ccc(OCc2cccc(Cl)c2)cc1 [NA-33]		25.5	15.46		EC50 [1, 4]: 3.81 µM
9.81		O=C(Nc1ccc(N2CCN(C(=O)c3cccs3)CC2)cc1)c1ccc(-c2ccccc2)cn1 [NA-39]		> 25	77.89		
	~12.9	CC(C)CC(=O)Nc1ccc2oc(-c3cccc(I)c3)nc2c1 [ND-5]	12.45			> 25	
	~4.84	O=C(Nc1ccc(N2CCOCC2)c(C(=O)Nc2ccc(OCc3ccccc3)cc2)c1)c1cccs1 [NB-18]	2.303			> 25	
	8.54	Cc1ccc(NC(=O)c2cc(NC(=O)Cc3ccccc3)ccc2N2CCOCC2)cc1Cl [NB-3]	2.603			> 25	
	4.53	ClCCCOc1ccc(-c2nc3cc(OCCCN4CCCC4)ccc3o2)cc1 [ND-94]	5.09			> 25	
